In patent publication US5852033A, “Methods of treatment using lamellarin-class alkaloids” (Pharma Mar, s.a., priority 1995, dated 1998) one finds IC50 data, which are given here for one compound.

Broadly, the IC50 is the concentration at which inhibition is half-maximal.

One test concerns CHOB1. As to the kind of experiment: LAMELLARINS TOXICITY TO SENSITIVE TUMOR CELL LINE CHOB1 (MTT). The class given is cell-based, chinese hamster. The settings on record: Cricetulus griseus, 72 h; CHOB1, sensitive, MTT, three days; read-out: ACTIVITY: IC50. The method, then: (§1) Sensitive and MDR cells were maintained, in logarithmic phase of growth, in Eagle's Minimum Essential Medium, with Earle's Balanced Salts, with non-essential amino acids, with 2.0 mM L-glutamine, without sodium bicarbonate (EMEM/neaa), supplemented with 5% Fetal Calf Serum (FCS), 10^-2 M sodium bicarbonate and 0.1 g/l penicillin G+0.1 g/l streptomycin sulfate.
(§2) In Vitro cell cytotoxicity was determined using the 3-[4,5-dimethylthiazol-2-yl]-2,5-dipheniltetrazolium bromide (MTT), from Sigma Ref:M-2128, for quantitative measurement of cell growth and viability. See, T. Mosmann, "Rapid Colorimetric Assay for Cellular Growth and Survival: Application to Proliferation and Cytotoxicity Assays," Journal of Immunological Methods, 65: 55-63 (1983).
(§3) The tumor cell lines employed have been: P-388 (ATCC CCL 46), suspension culture of a lymphoid neoplasm from a DBA/2 mouse and its corresponding MDR cell line P-388/SCHABEL; CHOB1 (ATCC CCL 16), monolayer culture of chinese hamster ovary and its corresponding MDR cell line CHOC5. See, Rauscher Ill, et al., "Characterization of Auromycin-Resistant Hamster Cell Mutants that Display a Multidrug Resistance Phenotype," Molecular Pharmacology, 38: 198-206 (1990).
(§4) This form of assay employs 96-well cell culture plates […]. Cells were seeded into wells at 1×10^3 cells per well in 100 μl aliquots of EMEM 5% FCS containing different concentrations of the corresponding lamellarins and other compounds (standards) to be tested. Two separate sets of cultures without drugs were seeded, one as control of growth to ensure that cells remained in exponential phase of growth, and another without cells as control of medium. All determinations were carried out in duplicate.
(§5) After three days of incubation at 37° C., 10% CO2 in a 98% humid atmosphere, 150 μg of MTT is added to each well in 50 μl aliquots of assay medium. Plates were incubated for an additional 4 hours and 100 μl aliquots of isopropanol were added to each well. The broad absorption spectrum for the isopropanol solution of this crystal is optimal at 570 nm. Optical density values were obtained with the help of a Dynatech microplate reader and the results of the assay were used to generate graphics from which IC50 was calculated; i.e., wherein the IC50 is the test concentration which produces 50% cell growth inhibition.

The subject of a further test is CHOC5 (MDR). As to the kind of experiment: LAMELLARINS TOXICITY TO RESISTANT (MDR) TUMOR CELL LINE CHOC5 (MTT). Format: cell-based, chinese hamster. The settings on record: Cricetulus griseus, 72 h; CHOC5 (MDR), MTT, three days; read-out: ACTIVITY: IC50. On the procedure: as §1, §2, §3, §4, §5
A further test concerns CHOC5. In words: Adriamycin toxicity to resistant cells (MDR) in presence or absence of reversing agents, CHOC5. Format: cell-based, chinese hamster. The settings on record: Cricetulus griseus; control, Adriamycin only, R.A. 0 μg/ml. On the procedure:
(§6) Gain of Sensitivity (G.S.) = IC50 Control/IC50 R.A.
as §1, §4
(§7) Plates were incubated for an additional 4 hours and 100 μl aliquots of isopropanol were added to each well. The broad absorption spectrum for the isopropanol solution of this crystal is optimal at 570 nm.

A further test relates to P-388/SCHABEL (MDR). In words: LAMELLARINS TOXICITY TO RESISTANT (MDR) TUMOR CELL LINE P-388/SCHABEL (MTT). The class given is cell-based. As to conditions: Mus musculus, P388, 72 h; P-388/SCHABEL (MDR), MTT, three days; read-out: ACTIVITY: IC50. On the procedure: as §1, §2, §3, §4, §5
The next test relates to P-388. As to the kind of experiment: LAMELLARINS TOXICITY TO SENSITIVE TUMOR CELL LINE P-388 (MTT). Format: cell-based. As to conditions: Mus musculus, P388, 72 h; P-388, sensitive, MTT, three days; read-out: ACTIVITY: IC50. On the procedure: as §1, §2, §3, §4, §5
The next test concerns P-388/SCHABEL. As to the kind of experiment: Adriamycin toxicity to resistant cells (MDR) in presence or absence of reversing agents, P-388/SCHABEL. The class given is cell-based. As to conditions: Mus musculus, P388; control, Adriamycin only, R.A. 0 μg/ml. The method, then:
as §6, §1, §4, §7

SMILES strings stand for the structures. ≈ marks a conversion by molar mass, not a printed value.

Turning to `COc1cccc2c1C(=O)c1c(O)c3c(c(O)c1C2=O)C[C@@](O)(C(=O)CO)C[C@@H]3O[C@H]1C[C@H](N)[C@H](O)[C@H](C)O1` [Adriamycin, reference compound], the IC50 in the test with CHOB1 worked out at 0.15 µg/mL (≈ 0.276 µM); in the test on CHOC5 (MDR), 3 µg/mL (≈ 5.52 µM); in the test on CHOC5 it was 3 µg/mL; in the test on P-388/SCHABEL (MDR), 1.2 µg/mL (≈ 2.21 µM); in the test with P-388 it was 0.15 µg/mL (≈ 0.276 µM); in the test with P-388/SCHABEL, 1.2 µg/mL.
